Experimental data as given in EP0158267A2, “Pharmaceutical composition containing 5-(2-fluorophenyl)-1,3-dihydro-3-hydroxy-7-nitro- or 5-(2-fluorophenyl)-1,3-dihydro-3-hydroxy-1-methyl-7-nitro-2H-1,4-benzodiazepin-2-one and process for their preparation” (Dolorgiet Beteiligungs-GmbH, priority 1984, dated 1985).

What was measured:
Maus [1] = assay: Prolongation of hexobarbital sleeping time (barbiturate narcosis, method of Fujimoto et al.); format: in vivo; conditions: for Verlängerung der Schlaf-zeit in % bei der Maus nach peroraler Gabe von 1mg/kg KG.: mouse, 1 mg/kg p.o., 30 min before 80 mg/kg hexobarbital i.v., versus control group; for schlafverlängernde Wirkung: statement in words
Procedure: (1) Verlängerung der Schlafzeit
Die Wirkung auf die Barbiturat-Narkose wurde in der Versuchsanordnung von J.M. Fujimoto et al. (J. Pharmacol. Exp. Ther. 129, 1960, 139) nachgewiesen. Gruppen von jeweils 10 männlichen Mäusen wurden die Testsubstanzen als Suspension in wässriger Carboxymethylcellulose mittels einer Stahlsonde auf oralem Weg direkt in den Magen verabreicht. 30 Minuten später wurde den Tieren 80 mg/kg Hexobarbital in eine Schwanzvene injiziert. Es wurde die Dauer des Schlafs gemessen und aus den Schlafzeiten der einzelnen Tiere der Kontroll-und Dosisgruppen die jeweiligen Mittelwerte berechnet. Die Verlängerung der Schlafzeit wurde in Prozent gegenüber der Kontrollgruppe berechnet.

[2] = Acute toxicity, oral, 7 days observation (Litchfield and Wilcoxon); format: in vivo, Maus; conditions: in vivo; mouse, oral, 7 days observation; * = highest technically applicable dose; read-out: Akute Toxi-zität LD50 mg/kg KG. Maus oral
Source text: (§1) Für diesen Versuch wurden je 10 männliche und weibliche Mäuse verwendet. Die Testsubstanzen wurden als Suspension in wässriger Carboxymethylcellulose per Magensonde verabreicht. Die Beobachtungszeit betrug 7 Tage. Die Ergebnisse wurden nach der Methode von G.T. Litchfield und F.G. Wilcoxon (J. Pharmacol. Exp. Ther. 96, 1949, 99) errechnet. Die Ergebnisse sind in der nachfolgenden Tabelle zusammengestellt.

Maus [3] = assay: as above; format: in vivo; conditions: for Zustand nach 24 h: mouse, oral, condition of animals 24 h after dosing; for Toxizität / Zustand der überlebenden Tiere: statement in words; for Zustand der überlebenden Tiere: findings above the dose without findings
Source text: as §1

Maus [4] = assay: Fighting test: inhibition of current-induced fighting (method of Tedeschi et al.); format: in vivo; conditions: statement in words; for tranquillisierende Wirkung im Kampftest: DP 327 compared with Flunitrazepam
Source text: Die Hemmwirkung gegenüber strominduzierter Kampfhandlungen bei Mäusen wurde in der Versuchsanordnung von R. Tedeschi et al. (J. Pharmacol. Exp. Ther. 125, 1959, 28) ermittelt. 10 Paare weiblicher Mäuse werden am Vortag des Versuches 3 Minuten elektrischen Stromstößen von 3,5 mA, 5 Hz und 5 msec ausgesetzt. Am Versuchstag werden die Testsubstanzen als Suspension in wässriger Carboxymethylcellulose mittels Magensonde peroral verabreicht. 30 Minuten nach der Verabreichung werden jeweils ein Paar in einem Testkäfig wieder den Stromstößen ausgesetzt und die innerhalb von 3 Minuten ausgelösten Kampfhandlungen gezählt. Die Zahl der Kampfhandlungen der jeweiligen Dosisgruppen werden addiert und in Prozent gegenüber der Kontrollgruppe berechnet. Der ED50-Wert wurde mittels halblogarithmischer Regression aus den Dosis-Wirkungsbeziehungen bestimmt.

[5] = Sleep induction (onset), no method described; format: in vivo; conditions: statement in words
[6] = DP 327 compared with Flunitrazepam, Beispiel 12 of DE-OS 14 45 873 compared with DP 327

Row | SMILES | Verlängerung der Schlaf-zeit in % bei der Maus nach peroraler Gabe von 1mg/kg KG. (Maus [1]) | schlafverlängernde Wirkung (Maus [1]; [6]) | LD50 at 168 h [2] | Zustand nach 24 h (Maus [3]) | Toxizität (Maus [3]) | schlafverlängernde Wirkung (Maus [1]; compared with Lormetazepam) | tranquillisierende Wirkung (Maus [4]; compared with Lormetazepam) | tranquillisierende Wirkung im Kampftest (Maus [4]) | Toxizität (Maus [3]; compared with Lormetazepam) | Zustand der überlebenden Tiere (Maus [3]) | Todesfälle (Maus [3]; up to the highest applicable dose of 8687 mg/kg) | Schlafinduktion [5]
1 | CN1C(=O)C(O)N=C(c2ccccc2)c2cc([N+](=O)[O-])ccc21 (centres unmarked) [DE-OS 14 45 873 Beispiel 12, reference compound] | 99% | geringerer schlafverlängernder Wirkung | 4700 mg/kg | bis 3200 mg/kg ohne Befund; ab 3200 mg/kg starke Sedierung, Koma. | toxischer als DP 327 |  |  |  |  |  |  | 
2 | CN1C(=O)C(O)N=C(c2ccccc2F)c2cc([N+](=O)[O-])ccc21 (centres unmarked) [DP 327, 5-(2-Fluorphenyl)-1,3-dihydro-3-hydroxy-1-methyl-7-nitro-2H-1,4-benzodiazepin-2-on] | 156% | gleichwertig | > 8690 mg/kg | bis 3600 mg/kg ohne Befund; 4824-8687 mg/kg leichte Sedierung. | sehr wenig toxisch | deutlich überlegen | deutlich überlegen | etwa doppelt so starke tranquillisierende Wirkung | deutlich überlegen | nur eine leichte Sedierung und Stereotypie | nur vereinzelt Todesfälle | rasche Schlafinduktion
3 | O=C1Nc2ccc([N+](=O)[O-])cc2C(c2ccccc2F)=NC1O (centres unmarked) [DP 370, 5-(2-Fluorphenyl)-1,3-dihydro-3-hydroxy-7-nitro-2H-1,4-benzodiazepin-2-on] | 118% | gute schlafverlängerde Wirkung | > 10000 mg/kg | bis 4640 mg/kg ohne Befund; ab 4640 mg/kg leichte Sedierung Sedierung, und Ataxie. | wesentlich geringeren Toxizität als die genannten Vergleichssubstanzen |  |  | gute tranquillisierende |  |  |  | 
4 | CN1C(=O)CN=C(c2ccccc2F)c2cc([N+](=O)[O-])ccc21 [Flunitrazepam, 5-(2-Fluorphenyl)-1,3-dihydro-1-methyl-7-nitro-2H-1,4-benzodiazepin-2-on, reference compound] | 179% |  | 2700 mg/kg | bis 1100 mg/kg ohne Befund; ab 1100 mg/kg starke Sedierung, Koma, Stereotypie. |  |  |  |  |  | von starker Sedierung und Stereotypie bis zum Koma |  | langsam einsetzt
5 | CN1C(=O)C(O)N=C(c2ccccc2Cl)c2cc(Cl)ccc21 (centres unmarked) [Lormetazepam, 7-Chlor-5-(2-chlorphenyl)-1,3-dihydro-3-hydroxy-1-methyl-2H-1,4-benzodiazepin-2-on, reference compound] | 78% |  | 6300 mg/kg | 900-1240 mg/kg leichte Sedierung; ab 1700 mg/kg zunehmend starke Sedierung. |  |  |  |  |  |  |  | fehlt
